This passage reports Ki and IC50 results from ChEMBL document CHEMBL1139248 (Bioorg Med Chem Lett, 2009).

The target of test [1] is T1, Calcitonin gene-related peptide type 1 receptor (Homo sapiens, UniProt O60894+Q16602). Kind of test: biochemical. The test is classed as cell-based, HEK293.
Description: Displacement of [125I]hCGRP from human CGRP receptor expressed in HEK293 cells coexpressing RAMP1
For test [2], the target named is T1, Calcitonin gene-related peptide type 1 receptor. The class given is functional, cell-based, HEK293.
For test [3] the target is unchanged. The test can be described thus: Antagonistic activity at human CGRP receptor expressed in HEK293 cells coexpressing RAMP1 assessed as inhibition of CGRP-induced cAMP production. The class given is functional, cell-based.

Each structure is given as a SMILES string.

T1 sequence (Q16602 whole entry, one chain of several): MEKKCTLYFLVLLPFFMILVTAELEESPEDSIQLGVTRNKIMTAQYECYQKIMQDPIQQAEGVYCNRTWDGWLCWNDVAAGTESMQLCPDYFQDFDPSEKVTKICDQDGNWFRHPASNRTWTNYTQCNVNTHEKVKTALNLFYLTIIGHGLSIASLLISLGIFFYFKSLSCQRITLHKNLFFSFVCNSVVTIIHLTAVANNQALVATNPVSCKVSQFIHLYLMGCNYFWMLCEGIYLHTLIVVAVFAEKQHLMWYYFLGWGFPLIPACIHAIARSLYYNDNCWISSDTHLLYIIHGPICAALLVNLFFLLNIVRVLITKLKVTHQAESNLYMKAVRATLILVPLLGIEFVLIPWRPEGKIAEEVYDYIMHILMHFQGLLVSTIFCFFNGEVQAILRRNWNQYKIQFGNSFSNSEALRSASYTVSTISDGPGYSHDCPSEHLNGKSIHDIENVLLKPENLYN

Regarding `O=C1CN(C2CCN(C(=O)N[C@@H]3N=C(c4ccccc4)c4ccccc4N(CC(F)(F)F)C3=O)CC2)C(=O)N1`, the Ki in test [1] is 520 nM.
For `CN1C(=O)NC(=O)[C@]12Cc1ccc(NC(=O)Cn3c(=O)n(C4CCOC4)c4ccccc43)cc1C2` (some centres undefined), the half-inhibitory concentration (IC50) in test [2] is 170 nM.
With `O=C(N[C@@H]1N=C(c2ccccc2)c2ccccc2N(CC(F)(F)F)C1=O)N1CCC(n2c(=O)[nH]c3ccccc32)CC1`, the inhibition constant Ki in test [1] stood at 2200 nM.
Regarding `O=C(N[C@@H]1N=C(c2ccccc2)c2ccccc2N(CC(F)(F)F)C1=O)N1CCC(n2c(=O)[nH]c3ncccc32)CC1`, the concentration for half-maximal inhibition (IC50) in test [2] amounted to 730 nM. For the same compound, the Ki in test [1] was determined as 22 nM.
As for `O=C(Cn1c(=O)n(C2CCOC2)c2ccccc21)Nc1ccc2c(c1)C[C@]1(C2)C(=O)Nc2ncccc21` (some centres undefined), the half-maximal inhibitory concentration (IC50) in test [2] was 27 nM; in test [3], 5.2 nM. The Ki in test [1] was 1.2 nM.
As to `O=C(Cn1c(=O)n(C2CCSCC2)c2ccccc21)Nc1ccc2c(c1)C[C@]1(C2)C(=O)Nc2ncccc21`, the values for the half-maximal inhibitory concentration (IC50) in test [2] and in test [3] were 24 nM and 2.5 nM, respectively. Moreover, the inhibition constant (Ki) in test [1] was 0.87 nM.
As to `O=C(CN1C(=O)C2(CCOCC2)c2ccccc21)Nc1ccc2c(c1)C[C@]1(C2)C(=O)Nc2ncccc21`, the half-maximal inhibitory concentration (IC50) in test [2] was determined as 39 nM; in test [3], 5.7 nM. Besides, the inhibition constant Ki in test [1] is 1.7 nM.
For the compound `O=C1CC2(Cc3ccc(NC(=O)Cn4c(=O)n(-c5ccccn5)c5ccccc54)cc3C2)C(=O)N1` (centres undefined), in test [1], the Ki worked out at 96 nM.
Same read-out and setting: under `O=C(Cn1c(=O)n(-c2ccccn2)c2ccccc21)Nc1ccc2c(c1)CC1(CCCNC1=O)C2` (centres undefined) stands 2700 nM; under `O=C(Cn1c(=O)n(-c2ccccn2)c2ccccc21)Nc1ccc2c(c1)C[C@@]1(C2)NC(=O)NC1=O`, 230 nM; under `O=C(Cn1c(=O)n(-c2ccccn2)c2ccccc21)Nc1ccc2c(c1)CC1(CCNC1=O)C2` (centres undefined), 270 nM.
Turning to `O=C(Cn1c(=O)n(-c2ccccn2)c2ccccc21)Nc1ccc2c(c1)C[C@]1(C2)C(=O)Nc2ncccc21`, the IC50 was determined as 420 nM in test [2] and 8.6 nM in test [3]. The Ki in test [1] was 2.3 nM.
`O=C(Cn1c(=O)n(-c2ccccn2)c2ccccc21)Nc1ccc2c(c1)C[C@@]1(C2)N=C(c2cccnc2)NC1=O`: the inhibition constant (Ki) in test [1] was determined as 130 nM.
The same measure, in the same setting: under `O=C(Cn1c(=O)n(-c2ccccn2)c2ccccc21)Nc1ccc2c(c1)CC1(C2)C(=O)Nc2ncccc21` (centres undefined) stands 3.7 nM.
Consider `CN1C(=O)NC(=O)[C@]12Cc1ccc(NC(=O)CN3C(=O)C4(CCOCC4)c4ccccc43)cc1C2`, for which the IC50 in test [2] was determined as 160 nM; in test [3], 57 nM. The Ki in test [1] came to 35 nM.
`O=C(Cn1c(=O)n(-c2ccccn2)c2ccccc21)Nc1ccc2c(c1)C[C@@]1(C2)N=C(C2CC2)NC1=O`: the Ki in test [1] was found to be 2600 nM.
For `CN1C(=O)NC(=O)[C@]12Cc1ccc(NC(=O)Cn3c(=O)n(-c4ccncn4)c4ccccc43)cc1C2`, the results for the concentration for half-maximal inhibition (IC50) in test [2] and in test [3] were 74 nM and 10 nM, respectively. The Ki in test [1] was found to be 16 nM.
Taken in the same sequence, the figures for `O=C(Cn1c(=O)n2c3c(cccc31)NC(=O)C2)Nc1ccc2c(c1)C[C@]1(C2)C(=O)Nc2ncccc21` were 0.62 nM, 0.28 nM and 0.04 nM.
As to `O=C(Cn1c(=O)n(-c2ccccn2)c2ccccc21)Nc1ccc2c(c1)CC1(C2)C(=O)Nc2ccccc21` (centres undefined), in test [1], the Ki is 520 nM.
On to `Cc1cc(C)c2c(c1)n(CC(=O)Nc1ccc3c(c1)C[C@]1(C3)C(=O)Nc3ncccc31)c(=O)n2CC(=O)N(C)C`, for which the IC50 in test [2] is 4.1 nM; in test [3], 0.87 nM. Moreover, the inhibitory constant (Ki) in test [1] is 0.21 nM.
On to `O=C(Cn1c(=O)n(-c2ccccn2)c2ccccc21)Nc1ccc2c(c1)C[C@@]1(C2)N=C(c2ccccc2)NC1=O`, for which the Ki in test [1] stood at 34 nM.
As for `O=C(Cn1c(=O)n(-c2ccncn2)c2ccccc21)Nc1ccc2c(c1)C[C@]1(C2)C(=O)Nc2ncccc21`, the IC50 in test [2] was determined as 35 nM; in test [3], 1.6 nM. Also, the inhibition constant (Ki) in test [1] came out at 0.61 nM.
Regarding `CN1C(=O)NC(=O)[C@]12Cc1ccc(NC(=O)Cn3c(=O)n(C4CCSCC4)c4ccccc43)cc1C2`, the IC50 in test [2] was found to be 220 nM; in test [3], 27 nM. For the same compound, the inhibitory constant (Ki) in test [1] amounted to 13 nM.
